In the Deep4Chem optical property database one finds emission maximum data, which are given here for 40 compounds.

Molecules are shown by their SMILES.

A short description of the data set: solvent given as SMILES.

Turning to `O=S(=O)(c1ccccc1)c1ccc(-c2ccc3c4ccc(-c5ccc(S(=O)(=O)c6ccccc6)cc5)cc4n(-c4ccccc4)c3c2)cc1`, the emission maximum by setting is: (in CCCCCC) 409 nm; (in CN(C)C=O) 437 nm; (in CO) 434 nm; (in Cc1ccccc1) 413 nm; (in ClCCl) 411 nm.
`O=C(c1ccncc1)c1ccc(-n2c3ccccc3c3ccccc32)cc1`: the emission maximum turned out to be 440 nm (in Cc1ccccc1) and 457.34 nm (in c1cc(-c2cccc(-n3c4ccccc4c4ccccc43)c2)cc(-n2c3ccccc3c3ccccc32)c1).
Under “in ClCCl”, `Cc1ccc(N(c2ccccc2)c2ccc3ccc4c(N(c5ccccc5)c5ccc(C)cc5)ccc5ccc2c3c54)cc1` displayed an emission maximum of 484 nm.
On to `CC(C)(C)c1ccc2c(c1)c1cc(C(C)(C)C)ccc1n2-c1ccc(-c2nc(-c3ccc(-n4c5ccc(C(C)(C)C)cc5c5cc(C(C)(C)C)ccc54)cc3)nc(-c3ccc(P(=O)(c4ccccc4)c4ccccc4)cc3)n2)cc1`, for which the emission maximum reads like this: (in C1CCOC1) 501.73 nm; (in CC#N) 543.52 nm; (in CC(C)=O) 525.92 nm; (in CN(C)C=O) 574.19 nm; (in Cc1ccccc1) 474.19 nm; (in ClCCl) 526.57 nm. Besides, the emission maximum (in O=P(c1ccccc1)(c1ccccc1)c1ccccc1Oc1ccccc1P(=O)(c1ccccc1)c1ccccc1) is on record as 492 nm.
The compound `CCOC(=O)CN1C(=O)C2=C(c3ccc(N4CCCCC4)cc3)N(CC(=O)OCC)C(=O)C2=C1c1ccc(N2CCCCC2)cc1` came in with an emission maximum (in CC#N) of 590 nm, an emission maximum (in CS(C)=O) of 603 nm and an emission maximum (in Cc1ccccc1) of 575 nm.
`CCCCCCCCCCn1nnc(-c2ccc(C#Cc3ccc(C#Cc4ccc(-c5nnn(CCCCCCCCCC)n5)cc4)c4nc5c6ccccc6c6ccccc6c5nc34)cc2)n1`: the emission maximum amounted to 495 nm (in C1CCOC1), 488 nm (in Cc1ccccc1) and 502 nm (in ClCCl).
In the case of `CCOC(=O)COc1ccccc1C(c1c(C)[nH]c2ccccc12)c1c(C)[nH]c2ccccc12`, the emission maximum was 328 nm (in C1CCCCC1), 348 nm (in CC#N), 349 nm (in CO) and 350 nm (in O).
Turning to `COc1ccc(/C=C(\C#N)c2nc(-c3ccc(Cl)cc3)cs2)cc1`, where the note is “in CC#N”, the emission maximum is recorded as 472 nm.
With `CC(C)(C)c1ccc2c(c1)c1cc(C(C)(C)C)ccc1n2-c1ccc(S(=O)(=O)c2cccc(S(=O)(=O)c3ccc(-n4c5ccc(C(C)(C)C)cc5c5cc(C(C)(C)C)ccc54)cc3)c2)cc1`, where the note is “in Cc1ccccc1”, the emission maximum was found to be 422 nm.
As for `CCCN1c2ccccc2Sc2cc(/C=C\c3cc(=O)oc4cc(NC(=O)OCC)ccc34)ccc21`, for the setting “in ClC(Cl)Cl”, the emission maximum is 635 nm.
`CCCc1cc2c(s1)-c1cc3c(cc1NB2c1ccccc1)-c1sc(CCC)cc1B(c1ccccc1)N3` yielded an emission maximum (in ClCCl) of 418 nm.
With `CC[N+](CC)=c1ccc2c(-c3ccccc3C(=O)O)c3c(=O)oc4cc5c(cc4c3oc-2c1)CCCN5C`, the emission maximum is, setting by setting: (in CCO) 651 nm; (in ClC(Cl)Cl) 647 nm; (in O) 658 nm.
Consider `CC(C)(C)c1ccc(-n2c(-c3ccc(-c4ccc(N(c5ccccc5)c5ccccc5)cc4)s3)nc3c4ccccc4c4ccccc4c32)cc1`, for which the emission maximum (in ClCCl) is on record as 419 nm.
Consider `O=C(O)CCCc1cc(C#Cc2ccccc2)c2ccc3c(C#Cc4ccccc4)cc(C#Cc4ccccc4)c4ccc1c2c34`, for which the emission maximum came to 461 nm (in CS(C)=O) and 460 nm (in ClC(Cl)(Cl)Cl).
`O=[N+]([O-])c1ccc2c(ccc3[n+]2[B-](F)(F)n2c-3cc3c4ccccc4c4ccccc4c32)c1` had an emission maximum (in ClCCl) of 631 nm.
On to `CN1c2ccccc2CCc2ccccc21`, for which the emission maximum (in CC#N) is 346 nm and the emission maximum (in CO) was found to be 348 nm.
In turn, `CCCCCCOc1cc(N(CC)CC)ccc1/C=C/C(=C(C#N)C#N)c1ccc(N(c2ccccc2)c2ccccc2)cc1` returned an emission maximum (in ClCCl) of 595 nm.
`CCCCC(CC)CN1C(=O)c2cc(Oc3ccc(OC)cc3)c3c4c(Oc5ccc(C(C)(C)C)cc5)cc5c6c(cc(Oc7ccc(C(C)(C)C)cc7)c(c7c(Oc8ccc(OC)cc8)cc(c2c37)C1=O)c64)C(=O)N(c1c(C(C)C)cccc1C(C)C)C5=O` (stereo unspecified): the emission maximum (in Cc1ccccc1) was determined as 608 nm.
For the compound `CCC1(CC)c2cc(-c3ccc(-c4ccc5c(c4)C(CC)(CC)c4cc(C(C)(C)C)ccc4-5)cc3)ccc2-c2ccc(C(C)(C)C)cc21`, for the setting “in CO”, the emission maximum is listed as 383.9 nm.
On to `N#Cc1cc(-c2cc(C#N)c(-n3c4ccccc4c4ccccc43)cc2-n2c3ccccc3c3ccccc32)c(-n2c3ccccc3c3ccccc32)cc1-n1c2ccccc2c2ccccc21`, for which the emission maximum (in Cc1ccccc1) was 453 nm.
Consider `CC1=[N+]2C(=C(c3c4ccccc4cc4ccccc34)c3ccc(/C=C/C(C)(C)C)n3[B-]2(F)F)C=C1`, for which the emission maximum (in ClC(Cl)Cl) is given as 556 nm.
On to `CCCCCCCCCCCCC(CCCCCCCCCC)Cn1c2cc(/C=C/C=C/c3nc4ccccc4s3)c3cccc4c5cccc6c(/C=C/C=C/c7nc8ccccc8s7)cc1c(c65)c2c34` (stereo unspecified), for which the emission maximum by setting is: (in C1CCCCC1) 588 nm; (in CC#N) 608 nm; (in Cc1ccccc1) 604 nm; (in ClCCl) 612 nm.
On to `Cc1ccc(C(=O)/C=C2\C(=O)Nc3ccccc32)cc1C`, for which the emission maximum is 387 nm (in C1CCCCC1); 397 nm (in C1COCCO1); 413 nm (in CC#N); 400 nm (in CC(C)(C)O); 403 nm (in CC(C)O); 387 nm (in CCCCCC). The emission maximum runs as follows: (in CCCCO) 401 nm; (in CCOC(C)=O) 395 nm; (in CN(C)C=O) 417 nm; (in CO) 399 nm; (in ClCCl) 418 nm; (in O) 409 nm.
As to `C1=C(c2ccc(-c3cccs3)s2)CCC1`, the emission maximum (in C1CCOC1) amounted to 413 nm; the emission maximum (in CC#N) is reported as 412 nm; the emission maximum (in CCCCCC) is 410 nm; the emission maximum (in CCO) came out at 408 nm; the emission maximum (in OCCOCCO) is reported as 416 nm; the emission maximum (in c1ccncc1) is recorded as 418 nm.
With `CCOc1cc2c(cc1/C=C/C(=C(C#N)C#N)c1ccccc1)c1ccccc1n2CC`, the emission maximum is, setting by setting: (in C1CCOC1) 541 nm; (in CC#N) 569 nm; (in CCO) 575 nm; (in CCOC(C)=O) 537 nm; (in CN(C)C=O) 573 nm; (in CS(C)=O) 575 nm. Besides, the emission maximum (in Cc1ccccc1) is recorded as 522 nm, the emission maximum (in ClC(Cl)Cl) is listed as 550 nm and the emission maximum (in ClCCl) was 558 nm.
`CC1=CC(C)=[N+]2C1=C(c1ccc(O)cc1)c1c(C)cc(/C=C/C=C3/N(C)c4ccccc4C3(C)C)n1[B-]2(F)F` displayed an emission maximum (in O) of 708 nm.
With `COc1ccc2c(=O)c3c([nH]c2c1)-c1cc(Cl)ccc1NC3(C)C`, the emission maximum runs as follows: (in C1CCOC1) 489 nm; (in CC#N) 512 nm; (in CCCCO) 525 nm; (in CCCO) 525 nm; (in CCO) 525 nm; (in CCOC(C)=O) 497 nm. For the same compound, the emission maximum came to 509 nm (in CN(C)C=O); 532 nm (in CO); 511 nm (in CS(C)=O); 477 nm (in Cc1ccccc1); 469 nm (in ClC(Cl)(Cl)Cl); 491 nm (in ClCCl). Moreover, the emission maximum is, setting by setting: (in O) 555 nm; (in c1ccccc1) 478 nm.
For the compound `F[Si](c1ccccc1)(c1ccccc1)c1cccc2ccccc12`, the emission maximum (in C1CCOC1) came to 332 nm.
As for `CCCCCCOc1cc(/C=C/c2cc(OCCCCCC)c(/C=C/c3cc(OCCCCCC)c(C=C4C(=O)c5ccccc5C4=O)cc3OCCCCCC)cc2OCCCCCC)c(OCCCCCC)cc1C=C1C(=O)c2ccccc2C1=O`, where the note is “in ClCCl”, the emission maximum was found to be 662 nm.
Turning to `COc1ccc2cc(C#N)c3ccc4ccccc4c3c2c1`, the emission maximum (in ClC(Cl)Cl) is 415 nm.
Take `CCCCCCN(CCCCCC)c1ccc(C#Cc2ccc([N+](=O)[O-])cc2)cc1`: the emission maximum is, setting by setting: (in CO) 630 nm; (in ClCCl) 618 nm.
`Cn1c2ccc(S(=O)(=O)Cl)cc2c(=O)c2cc(S(=O)(=O)Cl)ccc21`: where the note is “in CS(C)=O”, the emission maximum came to 424 nm.
Where the note is “in C1CCCCC1”, `CCCC1(CCC)c2cc(C#N)ccc2-c2ccc(C#N)cc21` showed an emission maximum of 324 nm.
In the case of `COc1cc2c3sc4ccccc4c3c3cncnc3c2c(OC)c1OC`, under “in ClCCl”, the emission maximum is given as 426 nm.
In the case of `COc1ccc(/C=C/c2cc(/C=C/c3ccc(N(c4ccccc4)c4ccccc4)cc3)nc(/C=C/c3ccc(N(C)C)cc3)n2)cc1`, the emission maximum is given as 436 nm (in C1CCOC1); 463 nm (in CC#N); 452 nm (in CC(C)=O); 398 nm (in CCCCCCC); 485 nm (in CS(C)=O); 411 nm (in Cc1ccccc1). Moreover, the emission maximum (in ClCCl) stood at 548 nm.
In turn, `COc1ccc(C#Cc2c3cc4ccccc4cc3c(C#Cc3ccc(OC)cc3)c3cc4ccccc4cc23)cc1` yielded an emission maximum (in ClCCl) of 706 nm.
Consider `COc1ccc(-n2nc(C#N)c(N3CCC(N4CCCCC4)CC3)n2)cc1`, for which the emission maximum (in CC#N) came out at 403 nm.
In the case of `Cc1ccc(N(c2ccc(C)cc2)c2ccc(-c3ccc(-c4ccc(N(c5ccc(C)cc5)c5ccc(C)cc5)cc4)c4nsnc34)cc2)cc1`, the emission maximum is, setting by setting: (in Cc1ccccc1) 628 nm; (in ClCCl) 609 nm.
Take `Fc1cccc(F)c1[B-]1(c2c(F)cccc2F)Oc2c(ccc3c4c(ccc23)C=[N+](c2ccccc2)[B-](c2c(F)cccc2F)(c2c(F)cccc2F)O4)C=[N+]1c1ccccc1`: the emission maximum was determined as 592 nm (in Cc1ccccc1) and 585 nm (in ClCCl).
In turn, `CCCCCCCCCC[n+]1cc2ccc3c[n+](CCCCCCCCCC)cc4ccc(c1)c2c34` gave an emission maximum (in CC#N) of 424 nm.
